The record followed here is US8461142B2, “Water-soluble anionic bacteriochlorophyll derivatives and their uses” (Yeda Research and Development Co. Ltd., priority 2002, dated 2013).

The test system of one series is M2R mouse melanoma cells. The experiment in a line: Phototoxicity assay (Neutral Red viability after illumination), M2R cells. Format: cell-based. To be noted: 4 hours incubation; for dark toxicity: kept in the dark, tested range; for LD50 (phototoxicity): washed, illuminated (λ>650 nm, 12 J/cm^2), survival 24 h after illumination. The protocol:
(§1) M2R mouse melanoma, H5V mouse endothelial and C6 rat glioma cells were cultured as monolayers in Dulbecco's modified Eagle's medium (DMEM)/F12 containing 25 mM HEPES, pH 7.4, 10% fetal bovine serum (FBS), glutamine (2 mM), penicillin (0.06 mg/ml), and streptomycin (0.1 mg/ml) (hereinafter referred to as the “Culture Medium”). Cells were grown at 37° C. in an 8% CO2-humidified atmosphere.
(§2) To determine the photodynamic efficacy, cells were preincubated with increasing concentrations of the pigments in the dark for the times and conditions as indicated for the individual experiments. Unbound sensitizer was removed by washing the cells once with culture medium, and the plates were illuminated at room temperature from the bottom (λ>650 nm, 12 J/cm^2). The light source was a 100 W Halogen lamp (Osram, Germany) equipped with a 4-cm water filter. The cultures were placed in the culture incubator and cell survival was determined 24 h after illumination, by Neutral Red viability assay. Three kinds of controls were used: (i) light control: cells illuminated in the absence of pigments; (ii) dark control: cells treated with pigments but kept in the dark; and (iii) untreated cells that were kept in the dark.
(§3) The phototoxicity of compounds 4 and 8 was determined as described in (ii) above in M2R mouse melanoma and H5V mouse endothelial cells. Cells were preincubated with increasing concentrations of the compound for 4 hours, washed and illuminated or kept in the dark.

For series [1], the system named is H5V mouse endothelial cells. Nature of the series: Phototoxicity assay (Neutral Red viability after illumination), H5V cells. The class given is cell-based. The settings on record: 4 hours incubation; for dark toxicity: kept in the dark, tested range; for LD50 (phototoxicity): washed, illuminated (λ>650 nm, 12 J/cm^2), survival 24 h after illumination. The protocol: as §1, §2, §3

Another series deals with M2R melanoma xenografts. The experiment in a line: PDT of M2R melanoma xenografts in CD1 nude mice. Format: in vivo. To be noted: for mice cure rate: 6 mg/kg i.v. The protocol: (§4) M2R or C6 cells (2×10^6) were implanted subcutaneously on the back of the mice; tumors developed to the treatment size (6-8 mm) within 2-3 weeks.
Stock solutions of the compounds of the invention were prepared prior to use by dissolving the dry pigment directly in PBS to the desired concentration for injection.
The M2R tumor-bearing mice were anesthetized and the pigment was injected intravenously (i.v.) via the tail vein. The tumors were immediately illuminated transcutaneously for 5 min by 755 nm diode laser (CeramOptec, Germany) with light dose of either 30 J/cm2 (100 mW/cm2), 39 J/cm2 (130 mW/cm2) or 45 J/cm2 (150 mW/cm2). After the treatment, the mice were returned to the cage. […] In the light control group, the mice were illuminated with 45 J/cm^2.
In these experiments (see section (vii) above), a dedicated medical laser matched to the peak absorption of 4 (CeramOptec, Germany, 755 nm) was used. In order to determine the optimal drug/light protocol, mice were treated with drug dose of 6 mg/kg and increasing the light intensity (FIG. 7).

Series [2] is described as follows: Pharmacokinetics in CD1 nude mice blood (Pd by ICP-MS). Format: in vivo. The protocol:
FIG. 5 is a graph showing pharmacokinetics of compound 4 in CD1 nude mice blood. Following compound 4 injection (6 mg/kg), blood samples were collected from the same mouse at the indicated times and Pd was determined. Each time point represents average of three mice±STD. Pigment 4 of the invention (6 mg/kg body) was injected to CD1 nude mice via tail vein. Mice were sacrificed at the indicated times, and samples of the indicated organs or tissues were placed and weighed in pre-weighted vials and immediately frozen on dry ice. For examination, each sample was thawed and homogenized (1:10 w/v) in double-distilled water. Aliquots of the homogenate (0.5 ml) were lyophilized in Eppendorff test tubes. […] Palladium concentrations were determined by ICP-MS. Background was determined for each organ/tissue on identical samples taken from untreated mice, and values were subtracted accordingly.

A short description of series [3]: Aqueous solubility and stability of solution. The class given is physicochemical. The source says:
Compound 4 is a pure and stable bacteriochlorophyll derivative isolated as a black purple crystalline powder. […] It is characterized by the following properties: (a) 4 main absorption peaks (750, 530, 385 and 330 nm). The strongest absorbance of light is near the infrared (≈750 nm) where tissue transmittance is the highest; (b) a very low cytotoxicity in the dark. Thus, tissue damage can be controlled by the light dose and length of exposure; (c) it is rapidly cleared from the body after administration. Therefore, potential skin photosensitization damage on exposure to ambient light or to the sun light is minimal; (d) generation of reactive oxygen species (ROS) is high because of efficient intersystem crossing (ISC).

A short description of series [4]: Biodistribution in CD1 nude mice (Pd content of organs). The class given is in vivo. The protocol:
Mice were sacrificed at different times following compound 4 injection (6 mg/kg), and Pd content was determined for the indicated organs. Each time point represents average of three mice±STD.
Pigment 4 of the invention (6 mg/kg body) was injected to CD1 nude mice via tail vein. Mice were sacrificed at the indicated times, and samples of the indicated organs or tissues were placed and weighed in pre-weighted vials and immediately frozen on dry ice. For examination, each sample was thawed and homogenized (1:10 w/v) in double-distilled water. Aliquots of the homogenate (0.5 ml) were lyophilized in Eppendorff test tubes. Then 0.2 ml of HNO3 (70%, TraceSelect, Fluka) was added to each dry sample, incubated for 1 h at 90° C. and diluted in double-distilled water to 10 ml. Palladium concentrations were determined by ICP-MS. Background was determined for each organ/tissue on identical samples taken from untreated mice, and values were subtracted accordingly.

In series [5] the test system is choroid and overlying retina (choriocapillaries).
Experimental: The WST11 powder was diluted in endotoxin-free sterile water at a concentration of 10 mg/ml, and shaken until complete dissolution. […] To calculate the volume to be injected, adjustment was made according to the rabbit weight. The appropriate volume solution was injected intravenously as a bolus via the marginal ear vein.
Pigmented rabbits (136 “Fauve de Bourgogne” rabbits, 10-12 weeks old, 2.5-3 kg; Elevage des Pins, Epeigne-sur-Dême, France) were used. Acute and long term PDT effects on the rabbit eye were investigated for the following parameters: 1) 753 nm laser fluence (25 and 50 J/cm^2), Compound 4 (also designated WST11) doses (2.5 and 5 mg/kg) and distance to light illumination (DLI) of 1,5,10 and 15 minutes. 2) 689 nm laser fluence (10, 50, 100 J/cm^2), verteporfin doses (3, 6 and 12 mg/m^2) and a constant DLI of 5 min. These PDT parameters encompassed an array of effects on the choroid and the overlying retina were delivered for 83 seconds to induce occlusive, subthreshold occlusive and non-occlusive vascular events. Treated rabbit eyes were examined and followed by indirect ophthalmoscopy, fluorescein angiography (FA) and histology at various intervals after PDT.
For the histology, enucleated eyes were dissected under a binocular microscope. A 4 mm biopsy punch was used to excise the full thickness of treated zones. These tissues were fixed in glutaraldehyde, processed in cacodylate buffer and embedded in plastic. Semi-thin sections were obtained using a microtome and counter-stained with hematoxilin-eosin. These sections were analyzed using phase contrast microscopy. Specific sites of interest were further processed for TEM. Ultrathin sections were obtained using an ultramicrotome and counter-stained with uranyl acetate.
Another series has as its system rat C6 glioma xenografts. The experiment in a line: Vascular shutdown and permeability (Evans Blue) after PDT of C6 glioma xenografts. Format: in vivo, mice. To be noted: 9 mg/kg, 100 mW/cm^2 for 5 min; 24 hours after PDT. The protocol:
FIGS. 8a-8h are photographs showing the selective effect of PDT in mice bearing rat C6 glioma xenografts and treated with compound 4. (a-d) PDT treated animal; (e-h) untreated animal. (a) before treatment; (b) 3 hours after PDT and Evans-Blue (EB) injection; (c) skin flap of the treated area, 24 hours after PDT; (d) axial slice of the treated tumor 24 hours after PDT; (e) before EB injection; (f) 3 hours after EB injection; (g) skin flap 24 hours after EB injection; (h) axial slice of the untreated tumor, 24 hours after EB injection. T-tumor; S-skin; M-muscle; E-edema.
as §4
Mice bearing C6 glioma tumor xenografts were treated with pigment 4 (9 mg/kg) and light (100 mW/cm^2 for 5 min) Immediately after treatment, Evans Blue (EB; 1% in PBS) was injected (0.5 ml, i.p.). Mice were photographed at 3 and 24 hours after treatment. The mice were sacrificed 24 hours after treatment and skin flap was made for each mouse and photographed. Then the tumor was removed with the skin above it, frozen for 1 hour at −20° C., and then axial slice was made and the slice was photographed. Control mice were injected with Evans Blue at the same time as the treated mice, and the protocol was continued as described above for all the mice together.

`CC[C@H]1c2cc3[nH]c(c(CC(=O)OC)c4nc(cc5[nH]c(cc(n2)[C@@H]1C)c(C(C)=O)c5C)[C@@H](C)[C@@H]4CCC(=O)O)c(C(=O)NCCS(=O)(=O)[O-])c3C.[K+]` [Compound 5, 3^1-oxo-15-methoxycarbonylmethyl-Rhodobacteriochlorin 13^1-(2-sulfoethyl)amide dipotassium salt]: in the series on M2R mouse melanoma cells, the dark toxicity entry is “no dark toxicity” and the “LD50 (phototoxicity)” value is about 5 µM.
As to “Palladium 3^1-oxo-15-methoxycarbonylmethyl-Rhodobacteriochlorin 13^1,17^3-di(3-sulfopropyl)amide dipotassium salt [Compound 8]”, the dark toxicity result (in the series on M2R mouse melanoma cells; in series [1]) was “without any dark toxicity” each time. In addition, the “LD50 (phototoxicity)” value (with M2R mouse melanoma cells; in series [1]) was about 2 µM in each case.
“Palladium 3^1-oxo-15-methoxycarbonylmethyl-Rhodobacteriochlorin 13^1-(2-sulfo-ethyl)amide dipotassium salt [Compound 4]”: in the series on M2R melanoma xenografts (30 J/cm^2, 5 min illumination at 755 nm immediately after injection), the mice cure rate stood at 43%. The mice cure rate in the series on M2R melanoma xenografts (45 J/cm^2, 5 min illumination at 755 nm immediately after injection) stood at 60%. The compound also showed a mice survival in the series on M2R melanoma xenografts (9 mg/kg i.v., 30 J/cm^2, 5 min illumination) of 70%. For the same compound, the “dark toxicity in animals” value in the series on M2R melanoma xenografts (6 or 9 mg/kg, kept in the dark) was “No dark toxicity”. In series [2] (6 mg/kg i.v., mice blood), the “CL (clearance)” value worked out at 0.89 mL/min, the “Kel (rate of elimination)” value was 0.42 min⁻¹ and the “Vd (volume of distribution)” value is 2.12 mL. The same compound displayed a T0.5 in series [2] (6 mg/kg i.v., mice blood, monophasic) of 1.65 min. For the same compound, the “pigment cleared from blood within the first 10-min after i.v. injection” value in series [2] (mouse, in vivo) was “about 90%”. For the same compound, in the series with M2R mouse melanoma cells, the dark toxicity entry is “without any dark toxicity” and the “LD50 (phototoxicity)” value is about 2 µM. The stability of formulation in series [3] (10 mg/ml in endotoxin-free sterile water, 4° C., protected from light) was determined as 24 h. Besides, in series [3] (aqueous solution), the solubility result is “soluble in aqueous solution”. Moreover, in series [1], the dark toxicity result is recorded as “without any dark toxicity” and the “LD50 (phototoxicity)” value is about 2 µM. Further, in series [4] (6 mg/kg i.v.), the “time after injection to background levels in all tissues” value is at most 30 min and the “time for pigment levels to drop to almost background levels in most of the examined organs” value is 20 to 30 min. Further, the “treated eyes with total choroidal occlusion associated with structural lesions of the overlying RPE and retina” value in series [5] (fluence 50 J/cm^2, 5 mg/kg, DLI 1 minute, 753 nm) is given as 100%. In addition, the “choriocapillaries occlusion and retinal lesions” value in series [5] (non-occlusive parameters: 25 J/cm^2, 5 mg/kg, DLI 10 minutes) is on record as “did not induce choriocapillaries occlusion nor retinal lesions”. Moreover, the “duration of occlusion of the choriocapillaries after PDT” value in series [5] (rabbit eye) was “up to one week”. Besides, the “effect on tumor blood perfusion (Evans Blue)” value in the series on rat C6 glioma xenografts is “vascular shutdown”.
Take “Pd-Bacteriopheophorbide a [Pd-Bpheid, reference compound]”: the “time after injection to reach background levels” value in series [4] (mouse body, not shown) was 48 h.
“Zinc 3^1-oxo-15-methoxycarbonylmethyl-Rhodobacteriochlorin 13^1-(2-sulfoethyl) amide dipotassium salt [Compound 11]”: in the series with M2R mouse melanoma cells, the dark toxicity entry was “no dark toxicity” and the “LD50 (phototoxicity)” value was about 5 µM.
As to verteporfin [reference compound], the “eyes with occlusive events (observed by FA)” value in series [5] (12 mg/m^2, 100 J/cm^2, DLI 5 minutes, 689 nm) is given as 89%. Further, in series [5] (non-occlusive parameters: 3 mg/m^2, 10 J/cm^2, DLI 5 minutes), the “choriocapillaries occlusion on FA” value is given as “did not induce any choriocapillaries occlusion”.
